Bounds are passed on as bounds.

The experiment concerns 3T3. The experiment can be described thus: IGF-1-induced DNA synthesis (3H-thymidine incorporation). Format: cell-based. The note with it: NIH3T3, activated with 50 ng/mL IGF-1, read-out: inhibited 3T3 proliferation. Here is the method:
IGF-1-Induced DNA Synthesis.
Human tumor cell lines or a rat fibroblast cell line are plated out in flat-well plates in complete medium and allowed to adhere overnight. The cells are then starved in medium containing 0.1% bovine serum albumin (BSA) overnight, pre-incubated for 1 h with or without dilutions of compound, then activated overnight with 50 ng/mL insulin-like growth factor (IGF-1). Proliferation is determined by the level of ^3H-thymidine incorporation into DNA.
As for `COc1cc(Nc2nccc(Nc3cnc4ccccc4c3)n2)cc(OC)c1OC` [Example 1, N^4-Quinolin-3-yl-N^2-(3,4,5-trimethoxyphenyl)pyrimidine-2,4-diamine], the IC50 is under 150 nM.

As to `COc1cc(Nc2nccc(Nc3ccc4ncccc4c3)n2)cc(OC)c1OC` [Example 14, N^4-quinolin-6-yl-N^2-(3,4,5-trimethoxyphenyl)-pyrimidine-2,4-diamine], the IC50 was under 150 nM.

Turning to `COc1cc(C)c(Nc2nccc(Nc3cnc4ccccc4c3)n2)cc1OC` [Example 20, N^2-(3,4-dimethoxy-6-methylphenyl)-N^4-quinolin-3-yl-pyrimidine-2,4-diamine], the IC50 is under 150 nM.

Take `c1ccc2ncc(Nc3ccnc(Nc4ccc(N5CCOCC5)cc4)n3)cc2c1` [Example 48, N^2-(4-(4-morpholinyl)phenyl)-N -(3-quinolinyl)-2,4-pyrimidinediamine]: the IC50 was under 150 nM.

`c1ccc2ncc(Nc3ccnc(Nc4ccc(N5CCOCC5)nc4)n3)cc2c1` [Example 49, N^2-(6-(4-morpholinyl)-3-pyridinyl)-N^4-(3-quinolinyl)-2,4-pyrimidinediamine]: the IC50 is under 150 nM.

As for `CC(=O)c1ccc(Nc2nccc(Nc3cnc4ccccc4c3)n2)cc1` [Example 59, 1-(4-((4-(3-quinalinylamino)-2-pyrimidinyl)amino)phenyl)ethanone], the IC50 was under 150 nM.

Take `CN1CCN(c2ccc(Nc3nccc(Nc4cnc5ccccc5c4)n3)cc2)CC1` [Example 84, N^2-(4-(4-methyl-1-piperazinyl)phenyl)-N^4-(3-qulnolinyl)-2,4-pyrimidinediamine]: the IC50 was under 150 nM.

In the case of `COc1cc(Nc2nccc(Nc3cnc4ccccc4c3)n2)ccc1C(N)=O` [Example 94, 2-(Methoxy)-4-((4-(3-quinolinylamino)-2-pyrimidinyl)amino)benzamide], the IC50 is under 150 nM.

Turning to `c1ccc2ncc(Nc3ccnc(Nc4ccc(OCCCN5CCCCC5)cc4)n3)cc2c1` [Example 98, N^2-[4-(3-Piperidin-1-yl-propoxy)-phenyl]-N^4-4-quinolin-3-yl-pyrimidine-2,4-diamine], the IC50 is under 150 nM.

For `c1ccc2ncc(Nc3ccnc(Nc4ccc(OCCN5CCCCC5)cc4)n3)cc2c1` [Example 99, N^2-(4-((2-(1-Piperidinyl)ethyl)oxy)phenyl)-N^4-(3-quinolinyl)-2,4-pyrimidinediamine], the IC50 was under 150 nM.

As for `COc1ccc(Nc2nccc(Nc3cnc4ccccc4c3)n2)cc1CCN(C)C` [Example 100], the IC50 is under 150 nM.

`c1cc(Nc2nccc(Nc3cnc4ccccc4c3)n2)cc(-c2cnco2)c1` [Example 104, N^2-(3-(1,3-oxazol-5-yl)phenyl)-N^4-(3-quinolinyl)-2,4-pyrimidinediamine]: the IC50 is under 150 nM.

As for `c1cc(Nc2nccc(Nc3ccc4ncccc4c3)n2)cc(-c2cnco2)c1` [Example 105, N^2-(3-(1,3-oxazol-5-yl)phenyl)-N^4-(6-quinolinyl)-2,4-pyrimidinediamine], the IC50 was under 150 nM.

For the compound `CC(=O)N1CC(C)(C)c2ccc(Nc3nccc(Nc4cnc5ccccc5c4)n3)cc21` [Example 110, N^2-(1-acetyl-3,3-dimethyl-2,3-dihydro-1H-indol-6-yl)-N^4-(3-quinolinyl)-2,4-pyrimidinediamine], the IC50 was under 150 nM.

`COc1cc(Nc2nccc(Nc3ccc4nc(C)ccc4c3)n2)cc(OC)c1OC` [Example 118, N^4-(2-Methyl-6-quinolinyl)-N^2-(3,4,5-tris(methoxy)phenyl)-2,4-pyrimidinediamine]: the IC50 is under 150 nM.

For the compound `COc1cc(Nc2nccc(Nc3cc4ccccc4c(OC)n3)n2)cc(OC)c1OC` [Example 130, N^4-(1-Methoxy-isoquinolin-3-yl)-N^2-(3,4,5-trimethoxy-phenyl)-pyrimidine-2,4-diamine], the IC50 was under 150 nM.

On to `COc1cc(Nc2nccc(Nc3cnc4ccccc4c3)n2)ccc1OCCN1CCN(c2nccc(Nc3cnc4ccccc4c3)n2)CC1` [Example 132, N^2-[3-Methoxy-4-(2-{4-[4-(quinolin-3-ylamino)-pyrimidin-2-yl]-piperazin-1-yl}-ethoxy)-phenyl]-N^4-quinolin-3-yl-pyrimidine-2,4-diamine], for which the IC50 was under 150 nM.

With `COc1ccc2ncc(Nc3ccnc(Nc4cc(OC)c(OC)c(OC)c4)n3)cc2c1` [Example 134, N^4-(6-Methoxy-quinolin-3-yl)-N^2-(3,4,5-tris(methoxy)phenyl)-2,4-pyrimidinediamine], the IC50 was under 150 nM.

For the compound `COc1cc(Nc2nccc(Nc3cnc4ccc(O)cc4c3)n2)cc(OC)c1OC` [Example 135, N^4-(6-Hydroxy-quinolin-3-yl)-N^2-(3,4,5-tris(methoxy)phenyl)-2,4-pyrimidinediamine], the IC50 was under 150 nM.

As for `COc1ccc2ncc(Nc3ccnc(Nc4cc(OC)c(OC)cc4C)n3)cc2c1` [Example 137, N^4-(6-Methoxy-3-quinolinyl)-N^2-(2-methyl-4,5-dimethoxyphenyl)-2,4-pyrimidinediamine], the IC50 is under 150 nM.

On to `COc1cc(Nc2nccc(Nc3cnc4ccc(OC(F)(F)F)cc4c3)n2)cc(OC)c1OC` [Example 139, N^2-(3,4,5-Tris(methoxy)phenyl)-N^4-(6-trifluoromethoxy-3-quinolinyl)-2,4-pyrimidinediamine], for which the IC50 is under 150 nM.

Take `COc1cc(C)c(Nc2nccc(Nc3cnc4ccc(OC(F)(F)F)cc4c3)n2)cc1OC` [Example 140, N^2-(2-Methyl-4,5-dimethoxyphenyl)-N^4-(6-trifluoromethoxy-3-quinolinyl)-2,4-pyrimidinediamine]: the IC50 was under 150 nM.

As for `COc1cc(Nc2nccc(Nc3cnc4ccccc4c3)n2)ccc1/C=C/C(=O)N1CCCC1` [Example 148, 3-{2-Methoxy-4-[4-(quinolin-3-ylamino)-pyrimidin-2-ylamino]-phenyl}-1-pyrrolidin-1-yl-propenone], the IC50 is under 150 nM.

Take `COc1cc(Nc2nccc(Nc3cnc4ccccc4c3)n2)ccc1CCC(=O)N1CCCC1` [Example 149, 3-{2-Methoxy-4-[4-(quinolin-3-ylamino)-pyrimidin-2-ylamino]-phenyl}-1-pyrrolidin-1-yl-propanone]: the IC50 was under 150 nM.

In the case of `COc1cc(Nc2nccc(Nc3cnc4ccccc4c3)n2)ccc1CCCN1CCCC1` [Example 150, N^2-[3-Methoxy-4-(3-pyrrolidin-1-yl-propyl)-phenyl]-N-4-quinolin-3-yl-pyrimidine-2,4-diamine], the IC50 is under 150 nM.

As for `COc1cc(Nc2nccc(Nc3cnc4ccccc4c3)n2)ccc1OCCC1CCN(c2nccc(Nc3cnc4ccccc4c3)n2)CC1` [Example 151, N^2-[3-Methoxy-4-(2-{1-[4-(quinolin-3-ylamino)-pyrimidin-2-yl]-piperidin-4-yl}-ethoxy)-phenyl]-N^4-quinolin-3-yl-pyrimidine-2,4-diamine], the IC50 was under 150 nM.

The values above are taken from US6939874B2, “Substituted pyrimidinyl derivatives and methods of use” (Amgen Inc., priority 2001, dated 2005).
